Reference: patent publication US20220264878A1, “HERBICIDAL COMPOSITION CONTAINING R-TYPE PYRIDYLOXY CARBOXYLIC ACID DERIVATIVE AND USE THEREOF” (Qingdao Kingagroot Chemical Compound Co., Ltd., priority 2019, published 2022)

Assays:
Assay type in all cases: in vivo
Conyza Canadensis = experiment: Post-emergence foliage spray on Conyza Canadensis with a height of 10 cm, fresh weight inhibition (Tables 207-216; 24 days); settings: 24 days after treatment
Procedure: (§1) The above weeds were cultivated by a pot culture method. […] Full and uniform weed seeds were selected, soaked in warm water at 25° C. for 6 hours, and germinated in a 28° C. biochemical incubator (darkness). The weed seeds that had just germinatedwere evenly placed on the surface of the soil and then covered with 0.5-1 cm soil according to the sizes of seeds.
(§2) The technical materials were all dissolved in acetone, and diluted with an aqueous solution containing 0.1% emulsifier Tween-80. The dilution is performed as required.
(§3) A ratio of the active ingredient A to the active ingredient B and amounts thereof in each group depends on the characteristics and toxicity of the two agents, as well as the main application purpose of a corresponding formulation. Based on the pre-tests in this study, the dosage of the active ingredient A and B applied alone and in combination were shown in the tables. Water containing the solvent and emulsifier same with the above groups but free of the agents was used as a blank control.
In the stage of weeds with 6˜8 leaves, the weeds were thinned out to maintain 3 weeds per pot and 30 weeds for each treatment, then continued to be cultured to Conyza Canadensis with a height of 10 cm, and treated.
(§4) The well-cultured weeds were evenly placed on a platform with an area of 0.5 m^2, and a solution of agents was sprayed on the stems and leaves thereof by the 3WP-2000-type walking spray tower at a dosage of 450 kg/ha and at a spray pressure of 0.3 MPa. After all the solution was sprayed, the valve was closed. After 30 seconds, the door of the spray tower was opened, and the nutritional bowl was taken out. Then the valve was opened, and the spray tube was cleaned by spraying 50 ml of water.
(§5) A pot-culture method was employed. For the cultivation of weeds, please refer to the Section 1.1), and “Pesticide guidelines for laboratory bioactivity tests—herbicides”. As to a method for applying agents, please refer to the section 2.3.2), that is, a foliage treatment was employed. After the treatment, the weeds were routinely cultured in a greenhouse.
(§6) A method for investigating absolute number was employed, wherein whole seedlings of survival weeds were cut off with a blade along the soil surface, and the fresh weight of the weeds was weighed with an analytical balance. For dead weeds, the fresh weight thereof was zero.
(§7) Wherein, in the formula, X represented the fresh weight inhibition rate of the active ingredient A in a dosage of P, and Y represented the fresh weight inhibition rate of the active ingredient B in a dosage of Q.

Eleusine indica = experiment: Post-emergence foliage spray, pot culture, fresh weight inhibition (Tables 1-48, 51-98, 101-148; 24 days); settings: Table 79
Text: (§8) Table 1-48, 51-98, 101-148: Echinochloa crusgalli var. zelayensis, Eclipta prostrate, Galium aparine L., Alopecurus aequalis, Alopecurus japonicus, Lindernia procumbens, Veronica persica^1, Malachium aquaticum, Beckmannia syzigachne, Stellaria media were collected in Huai'an of Jiangsu Province; Commelina communis, Sonchus arvensis, Setaria glauca, Chloris virgata, Setaria faberi, Sonchus oleraceus L., Echinochloa oryzoides, Cirsium setosum, Xanthium strumarium were collected in Qiqiha'er of Heilongjiang Province; Sinapis arvensis, Veronica persica^2 were collected in Zhumadian of Henan Province; Ludwigia prostrate, Ammannia arenaria were collected in Zhuji of Zhejiang Province; Amaranthus retrojlexus, Descurainia sophia, Digitaria sanguinalis, Setaria viridis, Conyza Canadensis, Capsella bursa-pastoris, Eleusine indica, Ipomoea purpurea, Abutilon theophrasti, Chenopodium album, Acalypha australis, Solanum nigrum were collected in Qingdao of Shandong Province; Echinochloa caudate were collected in Pingluo of Ningxia Province.
as §1
(§9) The culture was carried out in a controllable sunlight greenhouse at 20 to 30° C., in natural light, and relative humidity of 57% to 72%.
as §2, §3
(§10) Table 1-48, 51-98, 101-148, 151-206: […] per treatment, that is, a total of 60 weeds were treated in one treatment.
(§11) Table 1-48, 51-98, 101-148: The agents were used for only once in the experiment. In the stage of weeds with 3˜4 leaves, the weeds were thinned out to maintain 15 weeds per pot and 45 weeds for each treatment, then continued to be cultured to 5˜6 leaves stage of grassy weeds, 6˜7 leaves stage of broadleaf weeds, and treated.
as §4, §5, §6
(§12) Table 1-48, 51-98, 101-148, 207-216: The investigation was performed after 24 days of the treatment for only once.

Chloris virgata = experiment: as above
Text: as §8, §1, §9, §2, §3, §10, §11, §4, §5, §6, §12

Capsella bursa-pastoris = experiment: Post-emergence foliage spray, pot culture, fresh weight inhibition (Tables 151-206; 20 days)
Procedure: as §1, §2, §3
(§13) In the stage of weeds with 3˜4 leaves, the weeds were thinned out to maintain 15 weeds per pot and 45 weeds for each treatment, then continued to be cultured to 4˜5 leaves stage of grassy weeds, 5˜6 leaves stage of broadleaf weeds, and treated.
as §4, §5, §6, §7

Amaranthus retroflexus = experiment: as above
Procedure: as §1, §2, §3, §13, §4, §5, §6, §7

[1] = B alone 75 g a.i./ha, 20 days after treatment
[2] = B alone 150 g a.i./ha, 20 days after treatment
[3] = B alone 300 g a.i./ha, 20 days after treatment
[4] = B alone 600 g a.i./ha, 20 days after treatment

SMILES: COc1c(Cl)ccc(Cl)c1C(=O)O [dicamba]
- Control effect (%) of B applied alone in corresponding dose (Conyza Canadensis; B alone 150 g a.i./ha): 58.7%

SMILES: CCn1ncc(C(=O)c2ccc(S(C)(=O)=O)c(COCC(F)(F)F)c2Cl)c1OC(=O)c1cn(C)nc1C [fenpyrazone]
- Control effect (%) of B applied alone in corresponding dose (Eleusine indica; 7.5 g a.i./ha): 2.9%
- Control effect (%) of B applied alone in corresponding dose (Eleusine indica; 15 g a.i./ha): 10.9%
- Control effect (%) of B applied alone in corresponding dose (Eleusine indica; 30 g a.i./ha): 38.6%
- Control effect (%) of B applied alone in corresponding dose (Eleusine indica; 60 g a.i./ha): 79.1%
- Control effect (%) of B applied alone in corresponding dose (Chloris virgata; B 7.5 g a.i./ha): 5.5%
- Control effect (%) of B applied alone in corresponding dose (Chloris virgata; B 15 g a.i./ha): 14.8%
- Control effect (%) of B applied alone in corresponding dose (Chloris virgata; B 30 g a.i./ha): 39.9%
- Control effect (%) of B applied alone in corresponding dose (Chloris virgata; B 60 g a.i./ha): 79.2%

SMILES: COc1c(Cl)ccc(-c2nc(C(=O)OCc3ccccc3)c(Cl)c(N)c2F)c1F [florpyrauxifen benzyl]
- Control effect (%) of B applied alone in corresponding dose (Conyza Canadensis; B alone 1.875 g a.i./ha): 3.5%
- Control effect (%) of B applied alone in corresponding dose (Conyza Canadensis; B alone 7.5 g a.i./ha): 47.4%

SMILES: Nc1c(Cl)c(F)nc(OCC(=O)O)c1Cl [fluroxypyr]
- Control effect (%) of B applied alone in corresponding dose (Conyza Canadensis; B alone 37.5 g a.i./ha): 5.8%

SMILES: CP(=O)(O)CCC(N)C(=O)O (stereo not shown) [glufosinate ammonium]
- Control effect (%) of B applied alone in corresponding dose (Capsella bursa-pastoris; B 75 g a.i./ha, 20 days): 2.1%
- Control effect (%) of B applied alone in corresponding dose (Capsella bursa-pastoris; B 150 g a.i./ha, 20 days): 8.7%
- Control effect (%) of B applied alone in corresponding dose (Capsella bursa-pastoris; B 300 g a.i./ha, 20 days): 15.3%
- Control effect (%) of B applied alone in corresponding dose (Capsella bursa-pastoris; B 600 g a.i./ha, 20 days): 34.5%
- Control effect (%) of B applied alone in corresponding dose (Capsella bursa-pastoris; [1]): 2.1%
- Control effect (%) of B applied alone in corresponding dose (Capsella bursa-pastoris; [2]): 8.7%
- Control effect (%) of B applied alone in corresponding dose (Capsella bursa-pastoris; [3]): 15.3%
- Control effect (%) of B applied alone in corresponding dose (Capsella bursa-pastoris; [4]): 34.5%
- Control effect (%) of B applied alone in corresponding dose (Amaranthus retroflexus; B 75 g a.i./ha, 20 days): 10.2%
- Control effect (%) of B applied alone in corresponding dose (Amaranthus retroflexus; B 150 g a.i./ha, 20 days): 19.6%
- Control effect (%) of B applied alone in corresponding dose (Amaranthus retroflexus; B 300 g a.i./ha, 20 days): 28.6%
- Control effect (%) of B applied alone in corresponding dose (Amaranthus retroflexus; B 600 g a.i./ha, 20 days): 54.1%
- Control effect (%) of B applied alone in corresponding dose (Amaranthus retroflexus; [1]): 10.2%
- Control effect (%) of B applied alone in corresponding dose (Amaranthus retroflexus; [2]): 19.6%
- Control effect (%) of B applied alone in corresponding dose (Amaranthus retroflexus; [3]): 28.6%
- Control effect (%) of B applied alone in corresponding dose (Amaranthus retroflexus; [4]): 54.1%
